Measured values from patent US12098154B2, “Inhibitors of cyclin-dependent kinases” (Dana-Farber Cancer Institute, Inc., priority 2015, dated 2024).
Where two headings read alike, the source gives them in different places.

How the values were obtained:
CDK12 = biological target: T1, CDK12 (Homo sapiens, UniProt Q9NYV4); test: Pulldown assay with biotin-THZ1, blot for Cyclin K; type: cell-based; conditions: Jurkat cells treated with 1 uM or 200 nM
T1 construct: endogenous in cells; host or cells: Jurkat
T1 sequence (Q9NYV4 whole entry): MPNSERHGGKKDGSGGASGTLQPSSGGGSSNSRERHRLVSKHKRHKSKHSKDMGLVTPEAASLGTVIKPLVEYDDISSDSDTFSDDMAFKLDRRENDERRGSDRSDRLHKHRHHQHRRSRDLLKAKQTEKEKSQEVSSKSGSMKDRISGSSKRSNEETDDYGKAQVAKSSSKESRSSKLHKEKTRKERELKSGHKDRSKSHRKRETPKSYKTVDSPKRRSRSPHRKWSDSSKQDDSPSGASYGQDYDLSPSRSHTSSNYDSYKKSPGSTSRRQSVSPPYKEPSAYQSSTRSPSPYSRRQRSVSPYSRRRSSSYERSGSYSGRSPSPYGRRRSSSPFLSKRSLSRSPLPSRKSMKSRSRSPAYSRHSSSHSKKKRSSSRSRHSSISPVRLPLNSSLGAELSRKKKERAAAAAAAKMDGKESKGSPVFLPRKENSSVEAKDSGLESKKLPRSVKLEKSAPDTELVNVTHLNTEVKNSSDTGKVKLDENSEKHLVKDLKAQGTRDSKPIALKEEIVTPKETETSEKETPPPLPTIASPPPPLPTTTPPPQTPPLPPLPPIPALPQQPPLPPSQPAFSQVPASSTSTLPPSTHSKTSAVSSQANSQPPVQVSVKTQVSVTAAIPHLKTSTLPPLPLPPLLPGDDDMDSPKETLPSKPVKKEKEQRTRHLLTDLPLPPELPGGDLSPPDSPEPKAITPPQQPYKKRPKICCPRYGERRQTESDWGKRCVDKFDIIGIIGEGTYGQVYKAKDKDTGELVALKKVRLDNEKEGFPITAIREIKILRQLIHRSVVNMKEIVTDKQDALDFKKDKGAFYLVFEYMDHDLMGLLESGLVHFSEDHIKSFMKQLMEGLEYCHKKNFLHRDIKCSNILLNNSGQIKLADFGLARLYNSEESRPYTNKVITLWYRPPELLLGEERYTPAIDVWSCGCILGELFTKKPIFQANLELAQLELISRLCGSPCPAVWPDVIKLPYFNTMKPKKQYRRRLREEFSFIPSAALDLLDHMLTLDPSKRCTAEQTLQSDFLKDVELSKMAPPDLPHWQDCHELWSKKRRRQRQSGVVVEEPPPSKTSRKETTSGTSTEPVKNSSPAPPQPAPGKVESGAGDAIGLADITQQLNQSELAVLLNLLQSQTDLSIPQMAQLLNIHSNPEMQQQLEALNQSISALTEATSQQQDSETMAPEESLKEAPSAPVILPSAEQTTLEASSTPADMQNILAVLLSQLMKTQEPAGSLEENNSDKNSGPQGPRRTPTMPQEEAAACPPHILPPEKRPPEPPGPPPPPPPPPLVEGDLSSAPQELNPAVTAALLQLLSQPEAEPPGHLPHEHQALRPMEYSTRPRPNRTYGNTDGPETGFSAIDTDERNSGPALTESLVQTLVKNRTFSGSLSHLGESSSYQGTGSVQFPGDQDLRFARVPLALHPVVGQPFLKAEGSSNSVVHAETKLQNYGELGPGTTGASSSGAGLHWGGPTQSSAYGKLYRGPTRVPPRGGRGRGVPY
T1 sequence (O75909 whole entry partner): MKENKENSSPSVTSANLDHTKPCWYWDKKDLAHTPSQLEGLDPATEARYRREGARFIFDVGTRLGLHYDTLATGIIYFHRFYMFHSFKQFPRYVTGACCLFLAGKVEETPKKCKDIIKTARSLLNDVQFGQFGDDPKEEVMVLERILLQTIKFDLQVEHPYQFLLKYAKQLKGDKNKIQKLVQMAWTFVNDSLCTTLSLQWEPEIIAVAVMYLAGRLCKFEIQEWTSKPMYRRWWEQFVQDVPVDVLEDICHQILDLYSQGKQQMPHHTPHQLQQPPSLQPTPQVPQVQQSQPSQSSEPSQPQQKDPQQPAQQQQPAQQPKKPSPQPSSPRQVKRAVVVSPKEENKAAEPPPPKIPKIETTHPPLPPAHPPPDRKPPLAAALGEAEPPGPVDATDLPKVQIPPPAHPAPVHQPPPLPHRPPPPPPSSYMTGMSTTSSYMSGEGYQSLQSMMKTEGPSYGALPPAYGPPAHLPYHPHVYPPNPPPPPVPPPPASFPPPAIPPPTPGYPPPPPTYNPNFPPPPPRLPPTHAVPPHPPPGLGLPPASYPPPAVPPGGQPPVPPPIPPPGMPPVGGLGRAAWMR
Experimental: Specifically. […] Decreased pulldown of cyclin K with biotin-THZ1 indicated a loss of CDK12 binding.
(§1) 6 hours after treatment, cells were washed and harvested by resuspending in lysis buffer (50 mM Hepes pH 7.4, 150 mM NaCl, 1% NP-40, 5 mM EDTA, protease and phosphatase inhibitors) and lysing on ice 30 minutes. Lysates were cleared by centrifugation at 15,000 rpm 30 minutes. Biotin-labeled THZ1 was added to 1 uM to lysates and rotated at 4° C. overnight. Streptavidin-agarose beads were washed and 30 uL slurry was added to each lysate and rotated for 1 hour at 4° C. Beads were washed 5 times with lysis buffer and 50 uL 2×LDS buffer was added to each sample. Samples were boiled and equal volume of protein was loaded onto gel. Gel was transferred to nitrocellulose and blotted for Cyclin K and Cyclin H.

[1] = system: Pol II Ser2 phosphorylation and MCL1 levels; test: Washout expression assay (western blot); type: cell-based; conditions: Jurkat cells, 1 uM, 4 hours, 6 hours
Experimental: 4 hours after treatment, cells were either not treated or washed three times with RPMI media to remove all compound. Cells were replated and allowed to grow for 6 hours. Cells were harvested, washed 3 times with PBS and resuspended in RIPA buffer (25 mM Tris-HCl (pH 7.6), 150 mM NaCl, 1% NP-40, 1% sodium deoxycholate, 0.1% SDS). Equal amount of protein was loaded onto gel and blotted for Pol II Ser2 (Millipore 04-1571), total pol II (Santa Cruz 17798), Tubulin (Cell Signaling 11H10) or MCL1 (Cell Signaling 4572S)

CDK12 and CDK13 = test: KiNativ kinome profiling; type: binding; conditions: 1 μM, 6 hrs
Experimental: Jurkat cells were seeded at a density of 100 million cells/50 mL. Cells were treated with E9 (1 μM) or DMSO control for 6 hrs. Cells were washed twice with cold phosphate-buffered saline (PBS). PBS-washed cell pellets were flash frozen and subjected to KiNativt™ kinome profiling at ActivX Biosciences, Inc. according to their specifications using their desthiobiotin-ATP probe. Peptide sequences shown in Table A4 belong to the indicated kinase(s) and were detected by mass spectrometry (MS) under DMSO control conditions following enrichment for biotinylated proteins by streptavidin pulldown and subsequent proteolysis. Kinases labeled by the reactive desthiobiotin-ATP probe indicate that the kinase was accessible to desthiobiotin-ATP probe binding. Results shown are normalized to these paired DMSO controls and numbers represent the percentage (compared to DMSO control) of MS signal lost for sequences of an indicated kinase, eg—numbers approaching 100% indicate that test compound effectively out-competed the desthiobiotin ATP probe for binding to the kinase, resulting in decreased labeling and enrichment for peptides representing this kinase.

CDK12/CCNK complex = CDK12/CCNK complex (Homo sapiens, UniProt Q9NYV4); test: Electrospray ionization mass spectra of CDK12/CCNK complex after treatment; type: binding; conditions: 1 hr at room temperature
Sequence of CDK12/CCNK complex (Q9NYV4 whole entry): as the sequence (Q9NYV4 whole entry) above
Sequence of CDK12/CCNK complex (O75909 whole entry partner): as the sequence (O75909 whole entry partner) above
Excerpt: The zero-charge mass spectra in the upper panel and inset is the result of deconvolution of the raw mass spectrum in the lower panel. A. CCNK. C, phosphorylated CDK12. D, CDK12.
The zero-charge mass spectra in the upper panel and inset is the result of deconvolution of the raw mass spectrum in the lower panel. A, CCNK. B, phosphorylated and E-9 labeled CDK12. C, E-9 labeled CDK12.

Jurkat cells [2] = test: Growth assay with and without washout; type: cell-based; conditions: 1 uM, 4 hours treatment, assayed 68 hours after washout
Experimental: Cells were treated with each compound for 4 hours and either no washout (no washout) or had compound removed by washing cells with media (washout). Sixty-eight (68) hours after washout, the cells were assayed for antiproliferative effects. Error bars indicate +/−SD.
4 hours after treatment, cells were either not treated or washed three times with RPMI media to remove all compound. Cells were replated and allowed to grow for 68 hours. Cells were assayed using celltiter glo (Promega) to determine cell viability by measuring the amount of ATP present, which is an indicator of cell metabolic activity. Results are graphed as luminescent values (FIG. 1).

Jurkat cells [3] = test: Jurkat proliferation assay (CellTiter-Glo); type: cell-based; conditions: for IC50: Homo sapiens, Jurkat
Experimental: (§2) Jurkat cells were seeded at a density of 25,000 cells/well in 96-well plates. Cells were then treated with the indicated compounds in a 10-pt dose escalation format from 1 nM to 10 μM or DMSO control for 72 hours. After 72 hours, the cells were assayed using CellTiter-Glo Luminescent Cell Viability Assay (Promega) to determine cell viability by measuring the amount of ATP present in each sample cell population, which is an indicator of cell metabolic activity. […] All data points were performed in biological triplicate. Error bars are +/−SD.
as §2, with “hrs.” for “hours.”, “hrs,” for “hours, the”

CDK9/CycT = CDK9/CycT (Homo sapiens, UniProt P50750); test: CDK9/CycT inhibition (Tables A1, A2); type: biochemical
Sequence of CDK9/CycT (P50750 whole entry): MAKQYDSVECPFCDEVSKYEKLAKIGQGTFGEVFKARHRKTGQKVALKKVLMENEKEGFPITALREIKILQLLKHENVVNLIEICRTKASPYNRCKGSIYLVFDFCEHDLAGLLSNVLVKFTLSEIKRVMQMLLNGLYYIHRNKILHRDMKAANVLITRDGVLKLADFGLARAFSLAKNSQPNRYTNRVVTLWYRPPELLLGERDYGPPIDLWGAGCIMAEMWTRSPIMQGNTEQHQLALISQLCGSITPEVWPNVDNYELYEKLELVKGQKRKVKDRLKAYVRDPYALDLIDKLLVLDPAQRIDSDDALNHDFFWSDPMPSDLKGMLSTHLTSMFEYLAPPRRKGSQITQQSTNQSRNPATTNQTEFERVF
Sequence of CDK9/CycT (O60563 whole entry partner): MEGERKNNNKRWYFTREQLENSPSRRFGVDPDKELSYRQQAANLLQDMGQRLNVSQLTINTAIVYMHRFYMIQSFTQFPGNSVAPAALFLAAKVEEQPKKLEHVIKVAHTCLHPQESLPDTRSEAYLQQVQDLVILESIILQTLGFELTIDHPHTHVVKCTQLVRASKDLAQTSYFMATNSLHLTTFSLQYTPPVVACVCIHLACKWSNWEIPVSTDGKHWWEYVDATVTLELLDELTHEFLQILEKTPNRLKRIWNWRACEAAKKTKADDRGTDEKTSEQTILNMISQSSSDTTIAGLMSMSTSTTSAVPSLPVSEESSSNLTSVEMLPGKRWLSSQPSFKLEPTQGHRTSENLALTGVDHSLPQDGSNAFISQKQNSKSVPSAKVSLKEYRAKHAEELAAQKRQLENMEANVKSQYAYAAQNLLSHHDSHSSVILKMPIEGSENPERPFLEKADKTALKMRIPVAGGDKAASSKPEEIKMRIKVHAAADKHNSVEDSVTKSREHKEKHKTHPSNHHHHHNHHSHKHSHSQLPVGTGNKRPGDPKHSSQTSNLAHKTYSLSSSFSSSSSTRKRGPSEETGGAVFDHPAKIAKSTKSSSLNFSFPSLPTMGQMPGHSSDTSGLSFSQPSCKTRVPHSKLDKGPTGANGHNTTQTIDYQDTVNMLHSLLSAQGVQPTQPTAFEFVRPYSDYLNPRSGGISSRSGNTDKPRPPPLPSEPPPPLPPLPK

CDK2/CycA = CDK2/CycA (Homo sapiens, UniProt P24941); test: CDK2/CycA inhibition (Tables A1, A2); type: biochemical
CDK7 = biological target: T2, CDK7 (Homo sapiens, UniProt P50613); test: Pulldown assay with biotin-THZ1, blot for Cyclin H; type: cell-based; conditions: Jurkat cells treated with 1 uM or 200 nM
T2 construct: endogenous in cells; host or cells: Jurkat
T2 sequence (P50613 2-346 limits assumed): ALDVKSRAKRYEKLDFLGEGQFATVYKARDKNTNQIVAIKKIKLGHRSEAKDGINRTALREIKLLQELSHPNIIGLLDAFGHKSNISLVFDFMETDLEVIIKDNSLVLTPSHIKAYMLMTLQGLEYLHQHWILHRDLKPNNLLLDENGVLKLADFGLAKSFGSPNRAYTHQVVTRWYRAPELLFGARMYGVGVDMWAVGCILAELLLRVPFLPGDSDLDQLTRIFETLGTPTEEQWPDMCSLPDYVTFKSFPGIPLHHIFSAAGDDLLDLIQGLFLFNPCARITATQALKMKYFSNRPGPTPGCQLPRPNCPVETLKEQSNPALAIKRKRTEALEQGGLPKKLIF
T2 sequence (P51946 whole entry partner): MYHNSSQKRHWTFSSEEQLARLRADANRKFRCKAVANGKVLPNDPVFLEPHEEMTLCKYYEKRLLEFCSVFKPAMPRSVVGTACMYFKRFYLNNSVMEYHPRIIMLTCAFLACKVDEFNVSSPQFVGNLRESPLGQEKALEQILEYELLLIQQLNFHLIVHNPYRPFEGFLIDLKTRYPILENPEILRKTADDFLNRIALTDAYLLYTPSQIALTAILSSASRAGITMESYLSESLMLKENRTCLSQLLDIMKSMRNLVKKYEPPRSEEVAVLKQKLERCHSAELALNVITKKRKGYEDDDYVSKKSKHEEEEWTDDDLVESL
T2 sequence (P51948 whole entry partner): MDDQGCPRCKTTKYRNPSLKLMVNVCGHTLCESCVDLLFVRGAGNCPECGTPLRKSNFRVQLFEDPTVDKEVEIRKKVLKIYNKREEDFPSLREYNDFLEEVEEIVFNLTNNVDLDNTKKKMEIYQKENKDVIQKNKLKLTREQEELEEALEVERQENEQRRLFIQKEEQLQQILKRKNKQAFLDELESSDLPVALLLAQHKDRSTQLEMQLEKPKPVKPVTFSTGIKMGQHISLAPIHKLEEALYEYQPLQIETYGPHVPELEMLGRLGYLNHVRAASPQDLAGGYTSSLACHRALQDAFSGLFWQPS
Experimental: Compounds E9 and E17 were able to block pulldown of cyclin K at 1 μM and 200 nM. Specifically. […] Decreased pulldown of cyclin K with biotin-THZ1 indicated a loss of CDK12 binding.
as §1

CDK7/CycH = CDK7/CycH (Homo sapiens, UniProt P50613); test: CDK7/CycH inhibition (Tables A1, A2); type: biochemical
Sequence of CDK7/CycH (P50613 whole entry): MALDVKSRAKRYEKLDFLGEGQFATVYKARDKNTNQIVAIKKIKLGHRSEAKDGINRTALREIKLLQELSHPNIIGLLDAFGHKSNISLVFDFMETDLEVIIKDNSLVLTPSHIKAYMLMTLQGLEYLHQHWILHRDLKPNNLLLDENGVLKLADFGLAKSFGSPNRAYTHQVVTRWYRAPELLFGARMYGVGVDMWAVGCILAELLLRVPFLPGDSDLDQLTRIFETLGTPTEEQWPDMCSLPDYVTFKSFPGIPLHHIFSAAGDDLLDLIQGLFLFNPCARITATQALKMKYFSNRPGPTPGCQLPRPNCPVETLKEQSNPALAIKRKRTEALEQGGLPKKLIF
Sequence of CDK7/CycH (P51946 whole entry partner): as the sequence (P51946 whole entry partner) above

HAP1 cells = test: HAP1 cell proliferation assay, wild type vs CDK12 C1039S/CDK13 C1017S; type: cell-based; conditions: 72 hrs proliferation
Experimental: Double mutant cells are 4-fold less sensitive to E17 compared to wild type cells indicating rescue of CDK12/13 inhibition-induced proliferation defects. HAP1 cells were seeded at a density of 12,000 cells/well in 96-well plates. Twenty-four hours later, cells were treated with the indicated compounds in a 10-pt dose escalation format from 1 nM to 10 μM or DMSO control for 72 hours. After 72 hours, the cells were assayed using CellTiter-Glo Luminescent Cell Viability Assay (Promega) to determine cell viability by measuring the amount of ATP present in each sample cell population, which is an indicator of cell metabolic activity. Results were graphed as fraction of the DMSO control at 72 hours. All data points were performed in biological triplicate. Error bars are +/−SD.
Genome Editing: The CRISPR/Cas9 system was used to mutate the endogenous CDK12 and CDK13 loci to encode for CDK12 C1039S and CDK13 C1017S, both of which are putative CDK12/13 inhibitor-refractory mutants. Target-specific oligonucleotides were cloned into pX330, which carries a codon-optimized version of Cas9 and was further modified to express GFP for identifying transfectants. […]

Compound | Pulldown of Cyclin K by biotin-THZ1 (CDK12 binding) (CDK12) | Effect on Polymerase II Serine 2 phosphorylation and MCL1 levels with and without washout [1] | Kinases bound in Jurkat cells (competition with desthiobiotin-ATP probe) (CDK12 and CDK13) | Labeling of CDK12 (mass shift) (CDK12/CCNK complex) | Inhibition of Jurkat cell viability with and without washout (Jurkat cells [2]) | Mode of inhibition of Jurkat T-ALL cell proliferation (Jurkat cells [3]) | IC50 (Jurkat cells [3]; 72 h, read-out: IC50 on Jurkat T-ALL cell proliferation) [nM] | IC50 (Jurkat cells [3]; read-out: Jurkat IC50) [nM] | IC50 (CDK9/CycT) [nM] | IC50 (CDK2/CycA) [nM] | Pulldown of Cyclin H by biotin-THZ1 (CDK7 binding) (CDK7) | IC50 (CDK7/CycH) [nM] | Loss of sensitivity of CDK12 C1039S/CDK13 C1017S HAP1 cells compared to wild type HAP1 cells (HAP1 cells) [fold] | IC50 (Jurkat cells [3]; 72 h, CellTiter-Glo, read-out: IC50 on Jurkat T-ALL cell proliferation) [nM]
C=CC(=O)Nc1cccc(Nc2cc(N3CCCCC3CCO)nc3c(CC)cnn23)c1 (centres unmarked) [E-9(SB1-E-23), N-(3-(3-Ethyl-5-(2-(2-hydroxyethyl)piperidin-1-yl)pyrazolo[1,5-a]pyrimidin-7-ylamino)phenyl)acrylamide] | blocks the pulldown of Cyclin K | irreversible effect | binds predominantly CDK12 and CDK13 | Only the masses of CDK12 proteins shift after treatment | irreversibly inhibit Jurkat cell viability | irreversiably inhibit | < 100 | 78.8 | 21.6 | 250 | not able to bind to CDK7 | 1090 |  | 
C=CC(=O)Nc1cccc(Nc2nc(N[C@H]3CC[C@H](N(C)C)CC3)nc3c(CC)cnn23)c1 [SB1-E-17, N-(3-(2-((1r,4r)-4-(Dimethylamino)cyclohexylamino)-8-ethylpyrazolo[1,5-a][1,3,5]triazin-4-ylamino)phenyl)acrylamide] | blocks the pulldown of Cyclin K | irreversible effect |  |  | irreversibly inhibit Jurkat cell viability | irreversiably inhibit |  | 60.6 | 171 | 247 | not able to bind to CDK7 | 1020 | 4 | < 100
